From ChEMBL document CHEMBL1201862, “PubChem BioAssay data set” (2004) come the findings set out here.

Among the test systems are UO-31; OVCAR-5; LOX IMVI; IGROV-1; NCI-H522; NCI-H23; CAKI-1; SF-295; SNB-75; CCRF-CEM; OVCAR-3; SW-620; RXF 393; UACC-62; MOLT-4; M14; COLO 205; HOP-62; SK-MEL-28; 786-0.
Common to all, as to test: DTP human tumour cell line panel, 48 h

The term GI50 denotes the concentration at which growth is held to half of that of the control.

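48-hour exposure; five concentrations; linearly interpolated endpoints. GI50 marks 50% less growth.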 The source made the active and inactive calls. No stated cut-off is given here; in the data, active = GI50 up to about 1.1 µM and inactive = higher.

Regarding `CC(=O)O[C@H]1[C@@H](OC2CCCC2(c2ccccc2)c2ccccc2)O[N+]([O-])=C[C@@H]1c1ccccc1` (stereo not given in full), the GI50 was 10.7 µM (inactive) in the experiment with UO-31; 17.6 µM (inactive) in the experiment with OVCAR-5; 2.1 µM (inactive) in the experiment with LOX IMVI; 2.79 µM (inactive) with IGROV-1; 1.26 µM (inactive) in the experiment with NCI-H522; 11.9 µM (inactive) with NCI-H23. The GI50 was 4.85 µM (inactive) with CAKI-1; 8.13 µM (inactive) in the experiment with SF-295; 5.55 µM (inactive) in the experiment on SNB-75; 3.19 µM (inactive) in the experiment on CCRF-CEM; 8.87 µM (inactive) with OVCAR-3; 3.14 µM (inactive) in the experiment with SW-620. The GI50 in the experiment with RXF 393 was 2.82 µM (inactive); with UACC-62, 4.66 µM (inactive); in the experiment on MOLT-4, 2.63 µM (inactive); with M14, 6.18 µM (inactive); with COLO 205, 14.6 µM (inactive); in the experiment with HOP-62 it was 16.6 µM (inactive). The GI50 in the experiment on SK-MEL-28 is 2.55 µM (inactive); in the experiment with 786-0 it was 1.86 µM (inactive).

Turning to `Cc1c(C(=O)/C=C/c2ccc3c(c2)OCO3)[n+]([O-])c2ccccc2[n+]1[O-]`, the GI50 in the experiment with UO-31 was 28 µM (inactive); in the experiment with OVCAR-5, 27.8 µM (inactive); in the experiment with LOX IMVI it was 26.1 µM (inactive); with IGROV-1, 34.6 µM (inactive); in the experiment on NCI-H522, 15.3 µM (inactive); with NCI-H23 it was 19.5 µM (inactive). Moreover, the GI50 in the experiment with CAKI-1 is 25.9 µM (inactive); in the experiment on SF-295, 28.7 µM (inactive); in the experiment on SNB-75, 26.1 µM (inactive); in the experiment on CCRF-CEM, 32.9 µM (inactive); in the experiment with OVCAR-3 it was 24.2 µM (inactive); with SW-620, 37.2 µM (inactive). The GI50 with RXF 393 is 23 µM (inactive); in the experiment on UACC-62, 27.2 µM (inactive); with MOLT-4 it was 22.9 µM (inactive); with M14, 28.1 µM (inactive); with COLO 205, 27.7 µM (inactive); with HOP-62, > 100 µM (inactive). Also, the figures for the GI50 in the experiment with SK-MEL-28 and in the experiment with 786-0 were 61 µM (inactive) and 42.1 µM (inactive), respectively.

Take `C[C@@H]1C[C@H](O)[C@]2(O)O[C@@H]3C[C@@]4(C=O)[C@@H](CC[C@@H]5[C@@H]4CC[C@]4(C)[C@@H](C6=CC(=O)OC6)CC[C@]54O)C[C@H]3O[C@@H]2O1` [CALOTROPIN]: the GI50 was 0.0583 µM (active) in the experiment on UO-31; 0.126 µM (active) in the experiment on OVCAR-5; 0.0231 µM (active) in the experiment on LOX IMVI; 0.0209 µM (active) in the experiment on IGROV-1; 0.0162 µM (active) in the experiment with NCI-H522; 0.0188 µM (active) in the experiment with NCI-H23. The GI50 in the experiment with CAKI-1 was 0.023 µM (active); with SF-295, 0.0372 µM (active); with SNB-75, 0.0689 µM (active); in the experiment with CCRF-CEM, 0.0175 µM (active); in the experiment with OVCAR-3 it was 0.0182 µM (active); with SW-620 it was 0.0247 µM (active). For the same compound, the GI50 was 0.0176 µM (active) in the experiment with RXF 393; 0.0718 µM (active) in the experiment with UACC-62; 0.0163 µM (active) in the experiment with MOLT-4; 0.065 µM (active) in the experiment with M14; 0.0726 µM (active) in the experiment with COLO 205; 0.0244 µM (active) in the experiment with HOP-62. Moreover, the GI50 is 0.112 µM (active) in the experiment on SK-MEL-28 and 0.0156 µM (active) in the experiment on 786-0.
